Ends that are not written are not given here.
Columns and labels:
CD16b [1] = experiment: PAF induced CD16b expression on human neutrophils detected by CD16a.FITC; assay type: cell-based; conditions: 10-11M peptide; PAF 10^-9M (FIG. 11)
Procedure: (§1) The expression of CD11b and CD16b on the surface of neutrophils are represented as the difference in the mean fluorescence intensity (MFI) measured in cells incubated in the presence of PAF alone and those incubated with 10-11M concentration of peptide and PAF. Many of the tripeptides reduced the expression of CD11b and CD16b on human neutrophils that had been stimulated with platelet activating factor (PAF; 10^-9M).
(§2) Leukocytes were isolated from the blood of normal healthy volunteers. The blood (20 ml) was brought to a final volume of 50 ml with cold lysis buffer (155 mM NH4Cl, 10 mM KHCO3, 1 mM disodium EDTA, pH 7.4). […]
(§3) Once isolated the neutrophils were prepared to a final concentration of […] in phosphate buffered saline (PBS). […] The supernatant is decanted off carefully and 300 μl of PBS is added to the neutrophils and cells are read with a Fluorescence Activated Cell Sorter (FACS).
(§4) The effects of the peptides on CD11b or CD16b expression were evaluated by determining the changes in mean fluorescence intensity (MFI) of cells incubated in the presence of peptide and PAF and the those incubated in presence of PAF alone, after subtracting the background (Control) MFI expressed in cells incubated with neither PAF nor a peptide. […]

sensitized rat ileum = experiment: Antigen induced contraction of the sensitized rat ileum (intestinal anaphylaxis in vitro); assay type: cell-based; conditions: 10 ig of peptide in bath, 10 min, then 1 mg OA (FIG. 1)
Procedure: The Biological Response. The addition of antigen (OA) induced a slow tonic contraction of the intestinal (ileal) segments which peaked within 2 to 3 minutes before slowly receding to the baseline tension over 4 to 5 minutes. Urecholine (URE) produced a rapid tonic contraction that reached its maximum in 10 to 15 seconds. […] When FEG was added to the bath the OA/URE ratio was only 0.12±0.04, or 44% of the control response.
Effects of C-terminus substitutions, N-terminus substitutions, aromatic substitution at position 1, and Asp substitution at position 2 in both L and D forms in FEG, and removal of the glycine on inhibition of intestinal anaphylaxis in vitro.
In this in vitro motility study analogues of the tripeptide FEG were examined for their inhibitory effects on an anaphylactic reaction provoked by antigen on intestinal segments isolated from ovalbumin sensitized rats. […] Four to six weeks following sensitization, the terminal ileum was excised and 2 cm sections were mounted in 20 ml organ baths under 0.75 g of tension and the isometric force generated by OA and urecholine (Frosst, Kirkland, QC) was measured using a Grass Force Displacement Transducer FT03 (Quincy, Mass.). […] Anti-anaphylactic properties of FEG and its analogues were determined by adding 10 ig of peptide to a bath and incubating for 10 min. […] OA contractile response was measured at peak contraction. […]

CD16b [2] = experiment: PAF induced CD16b expression on human neutrophils detected by CD16b.FITC; assay type: cell-based; conditions: 10-11M peptide; PAF 10^-9M (FIG. 11)
Procedure: as §1, §2, §3, §4

Sprague Dawley rats = experiment: Intestinal motility disturbances (MMC disruption) caused by intravenous endotoxin; assay type: in vivo, rat
Procedure: Intravenous injection of LPS at either 10 or 20 μg/kg disrupted the normal fasting pattern of intestinal MMCs into the characteristic fed pattern which persisted for 85±3 min (n=3) and 105±8 min (n=15), respectively. The disruptions in the MMCs developed within 20±4 min and 17±1 min for the respective 10 and 20 μg/kg doses of LPS. The 20 μg/kg dose of LPS was used for subsequent experiments.
Intestinal Motility. Male and female Sprague Dawley rats, weighing 200-250 g were raised at the Life and Environmental Sciences Animal Resource Centre, The University of Calgary. The rats were maintained with lights on from 7:00 to 19:00 h, and were provided food and water ad libitum. For the intestinal motility experiments lipopolysaccharide (LPS; Salmonella typhosa; Sigma Chemical Co., St. Louis, […].) was injected intravenously at a dose of 20 μg/kg (Helistrom et al, 1997).
For motility recording rats were surgically prepared, as previously described (Mathison et al, 1998), with three bipolar jejunal electrodes under halothane anesthesia following an 18 h fast. A plastic cannula, with three pairs of Teflon-coated stainless steel bipolar electrodes, was positioned in an intrascapular region. The wires were subcutaneously tunnelled to the anterior abdominal wall, entering the peritoneal cavity through a stab incision. […] An eight-channel chart recorder (Hewlett-Packard, model 7858A) simultaneously recorded the electric signals generated by the migrating myoelectric complexes (MMCs), for three cycles before and 120 min after intravenous challenge with 20 μg/kg of LPS. […]
Changes in intestinal motility were detected by modifications in jejunal myoelectric activity from the standard MMCs that occur in fasting animals to a totally disrupted pattern of intense, irregular myoelectric electricity that developed with the endotoxic reaction. Before and after challenge with LPS, the cycle period of MMCs was determined by measuring the time between the ends of phase III activity (the marked increase in regular phasic myoelectric and motor activity) of successive MMCs.

leukocytes = conditions: in vivo; cited from earlier work
[3] = doses as low as 1 μg/kg; cited from earlier work

H-D-cha-D-glu-NH2 [(cha)e(NH2)]
CD16b expression detected by CD16a.FITC (CD16b [1]): reduced

H-D-cha-D-glu-OH [(cha)e]
biological activity: inhibition of antigen induced contraction of the ileum (sensitized rat ileum): active
CD16b expression detected by CD16b.FITC (CD16b [2]): reduced

H-D-phe-D-glu-Gly-NH2 [feG(NH2)]
CD16b expression detected by CD16a.FITC (CD16b [1]): reduced
inhibition of LPS induced disruption of the MMCs, dose response (Sprague Dawley rats; FIG. 3b): very potent

TDIFEGG [SGP-T]
rolling of leukocytes on mesenteric venules induced by LPS and histamine (leukocytes): prevents
lipopolysaccharide induced hypotension [3]: inhibits
duration of MMC disruption (Sprague Dawley rats; intravenous dose of 350 μg/kg): significantly reduced
duration of LPS disrupted intestinal MMCs (Sprague Dawley rats; intravenous, 100 μg/kg, 20 min before LPS 20 μg/kg iv): ineffective

Source: patent publication US6586403B1, “Treating allergic reactions and inflammatory responses with tri-and dipeptides” (Salpep Biotechnology, Inc., priority 2000, dated 2003)
